± gives the standard deviation of the averaged measurements.
How the values were obtained:
[1] = tested on: HSC2; experiment: relative IC50 (inflection point of fitted dose-response curve, CellTox-Green cytotoxicity, 72 h; top asymptote may be below 50%); higher = less potent
How it was run: (§1)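 MPNST cell lines and primary human Schwann cells were grown for 72 h at 37 °C in 384-well plates containing five 10-fold compound dilutions. CellTox-Green, added before seeding at a final 1:1000 dilution, gave fluorescence from DNA released by disrupted cells, and signals were scaled to vehicle and positive-control wells. Curves were fitted with a four-parameter logistic model. Drug sensitivity score and relative IC50 come from these fits, with IC50 censored at the top concentration.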

[2] = tested on: STS26T; experiment: as above
How it was run: as §1

[3] = tested on: ST8814; experiment: as above
How it was run: as §1

[4] = tested on: HSC1; experiment: as above
How it was run: as §1

[5] = tested on: YST-1; experiment: relative IC50 (inflection point of fitted dose-response curve, CellTiter-Glo viability, 72 h; top asymptote may be below 50% inhibition); higher = less potent
How it was run: (§2)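 For this screen, 384-well plates were preprinted with each compound at five concentrations in 10-fold steps and seeded with MPNST cell lines or primary human Schwann cells at 750–1000 cells per well. Incubation lasted 72 h at 37 °C, 5% CO2, and CellTiter-Glo ATP luminescence, scaled between vehicle and positive-control wells and averaged over duplicates where available, served as viability. Logistic fits with four parameters were applied. Relative IC50 (censored at the top concentration) and drug sensitivity score derive from these fits, and percent inhibition is at the top concentration.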

[6] = tested on: HS-Sch-2; experiment: as above
How it was run: as §2

[7] = tested on: HS-PSS; experiment: as above
How it was run: as §2

[8] = tested on: HS-PSS; experiment: relative IC50 (inflection point of fitted dose-response curve, CellTox-Green cytotoxicity, 72 h; top asymptote may be below 50%); higher = less potent
How it was run: as §1

[9] = tested on: HSC2; experiment: relative IC50 (inflection point of fitted dose-response curve, CellTiter-Glo viability, 72 h; top asymptote may be below 50% inhibition); higher = less potent
How it was run: as §2

[10] = tested on: STS26T; experiment: as above
How it was run: as §2

[11] = tested on: ST8814; experiment: as above
How it was run: as §2

[12] = tested on: S1507-2; experiment: drug sensitivity score (DSS, CellTox-Green cytotoxicity, 72 h) (DSS (dimensionless)); higher = more cytotoxic; extreme values may be limits of the assay
How it was run: as §1

[13] = tested on: HSC2 (primary human Schwann cells); experiment: as above
How it was run: as §1

[14] = tested on: HS-PSS; experiment: as above
How it was run: as §1

[15] = tested on: STS26T; experiment: as above
How it was run: as §1

[16] = tested on: ST8814; experiment: as above
How it was run: as §1

[17] = tested on: HSC1 (primary human Schwann cells); experiment: as above
How it was run: as §1

[18] = tested on: YST-1; experiment: drug sensitivity score (DSS, CellTiter-Glo viability, 72 h) (DSS (dimensionless)); higher = more sensitive; extreme values may be limits of the assay
How it was run: as §2

[19] = tested on: HS-Sch-2; experiment: as above
How it was run: as §2

[20] = tested on: S1507-2; experiment: as above
How it was run: as §2

[21] = tested on: HSC2 (primary human Schwann cells); experiment: as above
How it was run: as §2

[22] = tested on: HS-PSS; experiment: as above
How it was run: as §2

[23] = tested on: STS26T; experiment: as above
How it was run: as §2

[24] = tested on: ST8814; experiment: as above
How it was run: as §2

[25] = tested on: S462; experiment: as above
How it was run: as §2

[26] = tested on: HSC1 (primary human Schwann cells); experiment: as above
How it was run: as §2

[27] = tested on: YST-1; experiment: % inhibition of CellTiter-Glo viability at highest tested concentration (72 h), relative to DMSO and benzethonium chloride controls; higher = more inhibition
How it was run: as §2

[28] = tested on: HS-Sch-2; experiment: as above
How it was run: as §2

[29] = tested on: S1507-2; experiment: as above
How it was run: as §2

[30] = tested on: HSC2 (primary human Schwann cells); experiment: as above
How it was run: as §2

[31] = tested on: HS-PSS; experiment: as above
How it was run: as §2

[32] = tested on: STS26T; experiment: as above
How it was run: as §2

[33] = tested on: ST8814; experiment: as above
How it was run: as §2

[34] = tested on: S462; experiment: as above
How it was run: as §2

[35] = tested on: HSC1 (primary human Schwann cells); experiment: as above
How it was run: as §2

| SMILES | relative IC50 [1] | relative IC50 [2] | relative IC50 [3] | relative IC50 [4] | relative IC50 [5] | relative IC50 [6] | relative IC50 [7] | relative IC50 [8] | relative IC50 [9] | relative IC50 [10] | relative IC50 [11] | drug sensitivity score [12] | drug sensitivity score [13] | drug sensitivity score [14] | drug sensitivity score [15] | drug sensitivity score [16] | drug sensitivity score [17] | drug sensitivity score [18] | drug sensitivity score [19] | drug sensitivity score [20] | drug sensitivity score [21] | drug sensitivity score [22] | drug sensitivity score [23] | drug sensitivity score [24] | drug sensitivity score [25] | drug sensitivity score [26] | % inhibition [27] | % inhibition [28] | % inhibition [29] | % inhibition [30] | % inhibition [31] | % inhibition [32] | % inhibition [33] | % inhibition [34] | % inhibition [35] |
| --- | --- | --- | --- | --- | --- | --- | --- | --- | --- | --- | --- | --- | --- | --- | --- | --- | --- | --- | --- | --- | --- | --- | --- | --- | --- | --- | --- | --- | --- | --- | --- | --- | --- | --- | --- |
| COc1cc2ncnc(Nc3ccc(F)c(Cl)c3)c2cc1NC(=O)/C=C/CN1CCCCC1 [Dacomitinib] | > 1000 nM | > 1000 nM | > 1000 nM | > 1000 nM | > 1000 nM | 148 nM | 144 nM |  |  |  |  |  |  |  |  |  |  |  |  |  |  |  |  |  |  |  |  |  |  |  |  |  |  |  |  |
| CCc1c(C(=O)C(N)=O)c2c(OCC(=O)O)cccc2n1Cc1ccccc1 [Varespladib] | > 10000 nM | > 10000 nM | > 10000 nM | > 10000 nM | > 10000 nM | > 10000 nM | > 10000 nM | > 10000 nM | > 10000 nM | > 10000 nM | > 10000 nM |  |  |  |  |  |  |  |  |  |  |  |  |  |  |  |  |  |  |  |  |  |  |  |  |
| C[C@]12CC[C@H](O)CC1=CC[C@@H]1[C@@H]2CC[C@]2(C)C(c3cccnc3)=CC[C@@H]12 [Abiraterone] | > 5000 nM | > 5000 nM | > 5000 nM | > 5000 nM | > 5000 nM | > 5000 nM | > 5000 nM | > 5000 nM |  |  | > 5000 nM |  |  |  |  |  |  |  |  |  |  |  |  |  |  |  |  |  |  |  |  |  |  |  |  |
| CC1(C)CCC(CN2CCN(c3ccc(C(=O)NS(=O)(=O)c4ccc(NCC5CCOCC5)c([N+](=O)[O-])c4)c(Oc4cnc5[nH]ccc5c4)c3)CC2)=C(c2ccc(Cl)cc2)C1 [ABT-199] | > 10000 nM | > 10000 nM |  | > 10000 nM |  |  |  |  |  | > 10000 nM |  |  |  |  |  |  |  |  |  |  |  |  |  |  |  |  |  |  |  |  |  |  |  |  |  |
| C[C@@H](Oc1cc(-c2cnn(C3CCNCC3)c2)cnc1N)c1c(Cl)ccc(F)c1Cl [Crizotinib] | > 1000 nM | > 1000 nM | > 1000 nM | > 1000 nM | 393 nM |  | 367 nM | > 1000 nM |  | > 1000 nM | > 1000 nM |  |  |  |  |  |  |  |  |  |  |  |  |  |  |  |  |  |  |  |  |  |  |  |  |
| COc1cc(CCc2cc(NC(=O)c3ccc(N4CC(C)NC(C)C4)cc3)n[nH]2)cc(OC)c1 (stereo not drawn) [AZD4547] | > 1000 nM | > 1000 nM | > 1000 nM | > 1000 nM | > 1000 nM | 253 nM | > 1000 nM | > 1000 nM |  | > 1000 nM | > 1000 nM |  |  |  |  |  |  |  |  |  |  |  |  |  |  |  |  |  |  |  |  |  |  |  |  |
| CO[C@H]1C[C@@H]2CC[C@@H](C)[C@@](O)(O2)C(=O)C(=O)N2CCCC[C@H]2C(=O)O[C@H]([C@H](C)C[C@@H]2CC[C@@H](OCCO)[C@H](OC)C2)CC(=O)[C@H](C)/C=C(\C)[C@@H](O)[C@@H](OC)C(=O)[C@H](C)C[C@H](C)/C=C/C=C/C=C/1C [Everolimus] (max concentration tested 100 nM) |  |  |  |  |  |  |  |  |  |  |  | 6.46 ± 9.1 | 0 | 0 | 0 | 0 | 0 | 4.45 | 3.17 | 6.7 ± 1.1 | 15.8 | 3.56 | 15.6 | 7.31 | 8.44 ± 0.54 | 17.2 | 38.7% | 18.4% | 31 ± 1.7% | 48.5% | 23.8% | 45.4% | 28.3% | 29.4 ± 7.3% | 44.5% |
| Cc1cnc(Nc2ccc(F)cc2Cl)nc1-c1c[nH]c(C(=O)N[C@H](CO)c2cccc(Cl)c2)c1 [VX-11E] (max concentration tested 2500 nM) |  |  |  |  |  |  |  |  |  |  |  | 2.31 ± 3.2 | 4.5 | 0 | 2.55 | 5.09 | 2 | 0 | 6.97 | 1.62 ± 0.29 | 4.46 | 2.39 | 1.5 | 3.25 | 0.861 ± 0.47 | 3.7 | 6.16% | 71.8% | 40.7 ± 3% | 71.8% | 44.5% | 34% | 67.8% | 29.1 ± 8.6% | 64.2% |

From the supplement of paper PMC5579334
